# Laboratory results published in patent publication US20140212382A1, “PURINE MONOPHOSPHATE PRODRUGS FOR TREATMENT OF VIRAL INFECTIONS” (EMORY UNIVERSITY, priority 2011, published 2014).
# Experiments:
# [1] = Cytotoxicity assay, Vero cells; format: cell-based; conditions: African green monkey
# Experimental: (§1) The toxicity of the compounds was assessed in Vero, human PBM, CEM (human lymphoblastoid), and HepG2 cells, as described previously (see Schinazi R. F., Sommadossi J.-P., Saalmann V., Cannon D. L., Xie M.-Y., Hart G. C., Smith G. A. & Hahn E. F. Antimicrob. Agents Chemother. 1990, 34, 1061-67). Cycloheximide was included as positive cytotoxic control, and untreated cells exposed to solvent would be included as negative controls. The cytotoxicity IC50 was obtained from the concentration-response curve using the median effective method described previously (see Chou T.-C. & Talalay P. Adv. Enzyme Regul. 1984, 22, 27-55; Belen'kii M. S. & Schinazi R. F. Antiviral Res. 1994, 25, 1-11).
# [2] = Cytotoxicity assay, CEM cells; format: cell-based; conditions: human
# Experimental: as §1
# [3] = Cytotoxicity assay, PBM cells; format: cell-based; conditions: human
# Experimental: as §1
# [4] = system: HCV Replicon RNA in Huh 7 Clone B cells; test: HCV replicon assay; format: cell-based; conditions: HCV replicon assay
# Experimental: Huh 7 Clone B cells containing HCV Replicon RNA were seeded in a 96-well plate at 5000 cells/well, and the compounds tested at 10 μM in triplicate immediately after seeding. Following five days incubation (37° C., 5% CO2), total cellular RNA was isolated using the versaGene RNA purification kit from Gentra. Replicon RNA and an internal control (TaqMan rRNA control reagents, Applied Biosystems) were amplified in a single step multiplex Real Time RT-PCR Assay. The antiviral effectiveness of the compounds was calculated by subtracting the threshold RT-PCR cycle of the test compound from the threshold RT-PCR cycle of the no-drug control (ΔCt HCV). A ΔCt of 3.3 equals a 1-log reduction (equal to 90% less starting material) in Replicon RNA levels. The cytotoxicity of the compounds was also calculated using the ΔCt rRNA values. (2′-C-Me-C) was used as the control. To determine EC90 and IC50 values^2, ΔCt: values were first converted into a fraction of the starting material,^3 and then were used to calculate the % inhibition. The data on three compounds (Compound 12, Compound 8a, and compound 8b-up) is shown below in Table 3.
# [5] = system: HCV 1b S282T replicon; test: HCV resistant replicon 1b S282T; format: cell-based
# [6] = system: MtDNA, HepG2 Hepatoma cells; test: Mitochondrial toxicity in HepG2 cells: mitochondrial DNA content; format: cell-based; conditions: HepG2 Hepatoma cells, 14 day assay; for % Inhibition MtDNA: 10 μM
# Text: A real-time PCR assay to accurately quantify mitochondrial DNA content has been developed (see Stuyver L J, Lostia S, Adams M, Mathew J S, Pai B S, Grier J, Tharnish P M, Choi Y, Chong Y, Choo H, Chu C K, Otto M J, Schinazi R F. Antiviral activities and cellular toxicities of modified 2′,3′-dideoxy-2′,3′-didehydrocytidine analogs. Antimicrob. Agents Chemother. 2002; 46: 3854-60). This assay was used in all studies described in this application that determine the effect of nucleoside analogs on mitochondrial DNA content. In this assay, low-passage-number HepG2 cells were seeded at 5,000 cells/well in collagen-coated 96-well plates. Nucleoside monophosphate analogs were added to the medium to obtain final concentrations of 0 μM, 0.1 μM, 10 μM and 100 μM. On culture day 7, cellular nucleic acids were prepared by using commercially available columns (RNeasy 96 kit; Qiagen). […] The mitochondrial cytochrome c oxidase subunit II (COXII) gene and the β-actin or rRNA gene were amplified from 5 μl of the eluted nucleic acids using a multiplex Q-PCR protocol with suitable primers and probes for both target and reference amplifications. For COXII the following sense, probe and antisense primers are used, respectively: 5′-[…]-3′,5′-tetrachloro-6-carboxyfluorescein-[…]-TAMRA-3′ and 5′-[…]-3′. For exon 3 of the β-actin gene (GenBank accession number E01094) the sense, probe, and antisense primers are 5′-[…]-3′,5′-6-[…]-3′ and 5′-[…]-3′, respectively. The primers and probes for the rRNA gene are commercially available from Applied Biosystems. Since equal amplification efficiencies were obtained for all genes, the comparative CT method was used to investigate potential inhibition of mitochondrial DNA synthesis. The comparative CT method uses arithmetic formulas in which the amount of target (COXII gene) is normalized to the amount of an endogenous reference (the β-actin or rRNA gene) and is relative to a calibrator (a control with no drug at day 7). The arithmetic formula for this approach is given by 2-ΔΔCT, where ΔΔCT is (CT for average target test sample−CT for target control)−(CT for average reference test−CT for reference control) (see Johnson M R, K Wang, J B Smith, M J Heslin, R B Diasio. Quantitation of dihydropyrimidine dehydrogenase expression by real-time reverse transcription polymerase chain reaction. Anal. Biochem. 2000; 278:175-184). A decrease in mitochondrial DNA content in cells grown in the presence of drug would indicate mitochondrial toxicity.
# (§2) The effect of compounds 8b-up, 12, and 8a on nuclear or mitochondrial DNA, or lactic acid production, in HepG2 Hepatoma cells was analyzed over a 14 day period. The procedure outlined in section (i) above was used for this analysis.
# [7] = system: HCV 1b M414I replicon; test: HCV resistant replicon 1b M414I; format: cell-based
# [8] = system: HCV 5a chimera replicon; test: HCV replicon, 5a chimera; format: cell-based
# [9] = system: HCV 1a replicon; test: HCV replicon, genotype 1a; format: cell-based
# [10] = system: HCV 2b chimera replicon; test: HCV replicon, 2b chimera; format: cell-based
# [11] = system: HCV 2a replicon; test: HCV replicon, genotype 2a; format: cell-based
# [12] = system: HCV 3a chimera replicon; test: HCV replicon, 3a chimera; format: cell-based
# [13] = system: HCV 1b C316Y replicon; test: HCV resistant replicon 1b C316Y; format: cell-based
# [14] = system: HCV 1b replicon; test: HCV replicon, genotype 1b; format: cell-based
# [15] = system: HCV 4a chimera replicon; test: HCV replicon, 4a chimera; format: cell-based
# [16] = system: adenosine deaminase; test: Adenosine deaminase assay; format: in vitro ADME; conditions: 7 minutes with 0.002 units of enzyme; 50 μM, pH 7.4, 25° C.
# Experimental: To determine the propensity for deamination of the nucleosides and monophosphate prodrugs by adenosine deaminase, nucleoside analogues can be incubated with the commercially available purified enzyme, and the reaction can be followed spectrophotometrically. Typical reaction conditions involve preparing a solution containing 50 μM nucleoside analog in 0.5 mL 50 mM potassium phosphate (pH 7.4) at 25° C. The typical reaction time is 7 minutes with 0.002 units of enzyme, and 120 minutes with 0.2 units of enzyme. (The unit definition of adenosine deaminase is one unit will deaminate 1.0 μmol of adenosine to inosine per minute at pH 7.5 at 25° C.) Deoxyadenosine is typically used as a positive control. Deoxyadenosine is 59% deaminated under the given conditions in 7 minutes with 0.002 units of enzyme. Deoxyguanosine is typically used as a negative control. Optical density can be measured at 265 nm or 285 nm. The difference in optical density between the beginning and the end of the experiment is divided by the extinction coefficient, and then multiplied by the volume of the reaction to determine the number of mols of substrate transformed into product. Mols of product would be divided by mols of substrate equivalent to a 100% complete reaction then multiplied by 100 to obtain percent deamination. The limit of detection is typically 0.001 optical density units.
# [17] = system: nuclear DNA, HepG2 Hepatoma cells; test: Mitochondrial toxicity in HepG2 cells: nuclear DNA content; format: cell-based; conditions: 10 μM; HepG2 Hepatoma cells, 14 day assay
# Experimental: This assay was used in all studies described in this application that determine the effect of nucleoside analogs on mitochondrial DNA content. In this assay, low-passage-number HepG2 cells were seeded at 5,000 cells/well in collagen-coated 96-well plates. […] On culture day 7, cellular nucleic acids were prepared by using commercially available columns (RNeasy 96 kit; Qiagen). […] The mitochondrial cytochrome c oxidase subunit II (COXII) gene and the β-actin or rRNA gene were amplified from 5 μl of the eluted nucleic acids using a multiplex Q-PCR protocol with suitable primers and probes for both target and reference amplifications. […] For exon 3 of the β-actin gene (GenBank accession number E01094) the sense, probe, and antisense primers are 5′-[…]-3′,5′-6-[…]-3′ and 5′-[…]-3′, respectively. The primers and probes for the rRNA gene are commercially available from Applied Biosystems. […] The comparative CT method uses arithmetic formulas in which the amount of target (COXII gene) is normalized to the amount of an endogenous reference (the β-actin or rRNA gene) and is relative to a calibrator (a control with no drug at day 7). The arithmetic formula for this approach is given by 2-ΔΔCT, where ΔΔCT is (CT for average target test sample−CT for target control)−(CT for average reference test−CT for reference control) (see Johnson M R, K Wang, J B Smith, M J Heslin, R B Diasio. Quantitation of dihydropyrimidine dehydrogenase expression by real-time reverse transcription polymerase chain reaction. Anal. Biochem. 2000; 278:175-184). A decrease in mitochondrial DNA content in cells grown in the presence of drug would indicate mitochondrial toxicity.
# as §2
# [18] = system: HepG2 Hepatoma cells; test: Lactic acid production in HepG2 cells; format: cell-based; conditions: 10 μM, 14 day assay
# Experimental: The effect on the growth of HepG2 cells was determined by incubating cells in the presence of 0 μM, 0.1 μM, 1 μM, 10 μM and 100 μM drug. Cells (5×10^4 per well) were plated into 12-well cell culture clusters in minimum essential medium with nonessential amino acids supplemented with 10% fetal bovine serum, 1% sodium pyruvate, and 1% penicillin/streptomycin and incubated for 4 days at 37° C. At the end of the incubation period the cell number was determined using a hemocytometer. Also taught by Pan-Zhou X-R, Cui L, Zhou X-J, Sommadossi J-P, Darley-Usmer V M. “Differential effects of antiretroviral nucleoside analogs on mitochondrial function in HepG2 cells” Antimicrob. Agents Chemother. 2000; 44: 496-503. […] At day 4 the number of cells in each well was determined and the culture medium collected. The culture medium was filtered, and the lactic acid content in the medium determined using a colorimetric lactic acid assay (Sigma-Aldrich). Since lactic acid product can be considered a marker for impaired mitochondrial function, elevated levels of lactic acid production detected in cells grown in the presence of 2,6-diamino 2′-C-Me purine nucleoside monophosphate prodrug analogs would indicate a drug-induced cytotoxic effect.
# The effect of compounds 8b-up, 12, and 8a on nuclear or mitochondrial DNA, or lactic acid production, in HepG2 Hepatoma cells was analyzed over a 14 day period. […]
# [19] = system: HepG2 cells; conditions: 10 μM; cited from earlier work
structure (smiles),measurement,setting,value
CCOC(=O)CCc1ccccc1OP(=O)(N[C@H](C)C(=O)OCC)OC[C@H]1O[C@@H](n2cnc3c(N)nc(N)nc32)C(C)(O)C1O (stereo partly shown) [drawing 54],CC50,[1]; Vero,> 100 µM
same,CC50,[2]; CEM,> 100 µM
same,CC50,[3]; PBM,> 100 µM
CCOC(=O)[C@H](C)NP(=O)(OC[C@H]1O[C@@H](n2cnc3c(N)nc(N)nc32)C(C)(O)C1O)Oc1ccccc1 (stereo partly shown) [drawing 53],CC50,[1]; Vero,> 100 µM
same,CC50,[2]; CEM,> 100 µM
same,CC50,[3]; PBM,> 100 µM
"CCOC(=O)CCc1ccccc1OP(=O)(NC(C)C(=O)OCC)OC[C@H]1O[C@@H](n2cnc3c(N)nc(N)nc32)C(C)(O)C1O (single isomer, unassigned) [Compound 8b-up]",times more potent than 8b-down,[4],approximately 10
same,Fold increase versus 1b WT at the EC90,[5],+ (+ = 0.1 to 1)
same,effect on nuclear or mitochondrial DNA or lactic acid production,"[6]; up to 50 μM, summary also covers nuclear DNA and lactic acid",no significant effect
same,Fold increase versus 1b WT at the EC90,[7],+++ (+++ = 2.1 to 3)
same,Fold increase versus 1b WT at the EC90,[8],++ (++ = 1.1 to 2)
same,Fold increase versus 1b WT at the EC90,[9],++ (++ = 1.1 to 2)
same,Fold increase versus 1b WT at the EC90,[10],++ (++ = 1.1 to 2)
same,Fold increase versus 1b WT at the EC90,[11],++ (++ = 1.1 to 2)
same,Fold increase versus 1b WT at the EC90,[12],+ (+ = 0.1 to 1)
same,Fold increase versus 1b WT at the EC90,[13],++ (++ = 1.1 to 2)
same,Fold increase versus 1b WT at the EC90,[14],+ (+ = 0.1 to 1)
same,Fold increase versus 1b WT at the EC90,[15],+++ (+++ = 2.1 to 3)
Nc1ncnc2c1ncn2[C@H]1C[C@H](O)[C@@H](CO)O1 [Deoxyadenosine],percent deamination,[16],59%
"Nc1ccn([C@H]2CC[C@@H](CO)O2)c(=O)n1 [ddC, reference compound]",% Inhibition MtDNA,[6],100%
same,% Inhibition nuclear DNA,[17],72%
same,Lactic acid levels (% of control) ± SD,[18],220 ± 11 % of control
"O=c1[nH]c(=O)n([C@@H]2O[C@H](CO)[C@@H](O)[C@@H]2F)cc1I [fialuridine, 1,2′-deoxy-2′-fluoro-1-D-arabinofuranosly-5-iodo-uracil]",morphological changes in mitochondria (electron micrographs),[19],presence of enlarged mitochondria with morphological changes consistent with mitochondrial dysfunction
CC1(O)C(O)[C@@H](CO)O[C@H]1n1cnc2c(N)nc(N)nc21 (stereo partly shown) [drawing 52],CC50,[1]; Vero cells,> 100 µM
same,CC50,[2]; CEM lymphoblastoid cells,> 100 µM
same,CC50,[3]; PBM cells,> 100 µM
"Nc1ccn([C@@H]2CS[C@H](CO)O2)c(=O)n1 [Compound 3TC, reference compound]",% Inhibition MtDNA,[6],<1/<1%
same,Lactic acid levels (% of control) ± SD,[18],91 ± 2.5 % of control
